Source: US11155544B2, “Heterocycle comprising tyrosine kinase inhibitors” (Principia Biopharma Inc., priority 2015, dated 2021)

Columns and labels:
[1] = target: human recombinant BTK (Homo sapiens (Human), UniProt Q06187); test: BTK Enzymatic Activity Assay (Caliper-based kinase assay); format: biochemical; details: human recombinant BTK (0.5 nM), ATP (16 μM), peptide substrate (1 μM), room temperature for 3 h
Description: A Caliper-based kinase assay (Caliper Life Sciences, Hopkinton, Mass.) was used to measure inhibition of BTK kinase activity of a compound of the present disclosure. Serial dilutions of test compounds were incubated with human recombinant BTK (0.5 nM), ATP (16 μM) and a phosphoacceptor peptide substrate FAM-GEEPLYWSFPAKKK-NH2 (1 μM) at room temperature for 3 h. The reaction was then terminated with EDTA, final concentration 20 mM and the phosphorylated reaction product was quantified on a Caliper Desktop Profiler (Caliper LabChip 3000). Percent inhibition was calculated for each compound dilution and the concentration that produced 50% inhibition was calculated. This value is presented as the IC50.

[2] = test system: CD69 expression; test: Blockade of CD69 Expression in Human Whole Blood Samples; format: cell-based; details: 30 minutes pre-incubation, activation with anti-IgM, cells gated on CD20, CD69 by FACS
Description: Activation of the B cell receptor leads to increased BTK activity, calcium mobilization and B cell activation (see Honigberg L. A., et. al., Proc Natl Acad Sci USA. 107:13075-80. 2010). […] CD69 was expressed following B cell activation as a measure of BTK activity in whole blood. Aliquots of whole blood were pre-incubated with serial dilutions of test compound for 30 minutes followed by activation with anti-IgM (goat Fab′ 2, 50 μg/ml). Samples were incubated overnight at 37° C. and then stained with PE labeled anti-CD20 and APC labeled anti-CD69 (BD Pharmingen) for 30 minutes according to the manufacturer's directions. Whole blood was then lysed and cells gated on CD20 expression were quantified for CD 69 expression by FACS. The percent inhibition was calculated based on a DMSO control for no inhibition and plotted as a function of test compound concentration from which an IC50 value was calculated.

human recombinant BTK, sequence (Q06187 whole entry): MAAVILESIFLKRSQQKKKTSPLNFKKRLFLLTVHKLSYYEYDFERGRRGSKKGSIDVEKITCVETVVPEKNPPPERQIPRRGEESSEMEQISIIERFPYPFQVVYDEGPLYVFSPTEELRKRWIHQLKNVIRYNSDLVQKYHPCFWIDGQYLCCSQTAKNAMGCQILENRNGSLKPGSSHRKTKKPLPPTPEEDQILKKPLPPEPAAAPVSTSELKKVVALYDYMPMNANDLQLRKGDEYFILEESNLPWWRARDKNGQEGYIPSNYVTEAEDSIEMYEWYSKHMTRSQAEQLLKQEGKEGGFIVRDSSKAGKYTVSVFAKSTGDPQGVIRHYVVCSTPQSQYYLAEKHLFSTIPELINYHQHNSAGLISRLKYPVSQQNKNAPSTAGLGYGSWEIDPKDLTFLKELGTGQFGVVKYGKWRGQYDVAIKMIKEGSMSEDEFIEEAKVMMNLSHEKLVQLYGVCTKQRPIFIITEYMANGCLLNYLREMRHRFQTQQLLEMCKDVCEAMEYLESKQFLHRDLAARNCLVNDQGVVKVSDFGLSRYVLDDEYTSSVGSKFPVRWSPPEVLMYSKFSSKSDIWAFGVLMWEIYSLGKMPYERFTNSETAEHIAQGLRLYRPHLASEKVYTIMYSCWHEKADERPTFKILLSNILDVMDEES

Compound | IC50 [1] | IC50 [2]
CN1CCN(C(C)(C)C=C(C#N)C(=O)N2CCC[C@H]2Cn2nc(-c3ccc(Oc4ccccc4)cc3F)c3c(N)nccc32)CC1 [Compound 12, (S)-2-(2-((4-amino-3-(2-fluoro-4-phenoxyphenyl)-1H-pyrazolo[4,3-c]pyridin-1-yl)methyl)pyrrolidine-1-carbonyl)-4-methyl-4-(4-methylpiperazin-1-yl)pent-2-enenitrile] | 14 nM | 874 nM
CC(C)(C=C(C#N)C(=O)N1CCC[C@H]1Cn1nc(-c2ccc(Oc3ccccc3)cc2F)c2c(N)nccc21)N1CCN(C2COC2)CC1 [Compound 13, (S)-2-(2-((4-amino-3-(2-fluoro-4-phenoxyphenyl)-1H-pyrazolo[4,3-c]pyridin-1-yl)methyl)pyrrolidine-1-carbonyl)-4-methyl-4-(4-(oxetan-3-yl)piperazin-1-yl)pent-2-enenitrile] | 7.4 nM | 1290 nM
CC(C)(C)C=C(C#N)C(=O)N1CCC[C@H]1Cc1nc(-c2ccc(Oc3ccccc3)cc2F)c2c(N)nccn12 [Compound 16, (S)-2-(2-((8-amino-1-(2-fluoro-4-phenoxyphenyl)imidazo[1,5-a]pyrazin-3-yl)methyl)pyrrolidine-1-carbonyl)-4,4-dimethylpent-2-enenitrile] | 1.7 nM | 931 nM
CC(C)(/C=C(\C#N)C(=O)N1CCC[C@H]1Cc1nc(-c2ccc(Oc3ccccc3)cc2F)c2c(N)nccn12)N1CCOCC1 [Compound 17, (S)-2-(2-((8-amino-1-(2-fluoro-4-phenoxyphenyl)imidazo[1,5-a]pyrazin-3-yl)methyl)pyrrolidine-1-carbonyl)-4-methyl-4-morpholinopent-2-enenitrile] | 2.9 nM | 165 nM
CN(C1COC1)C(C)(C)C=C(C#N)C(=O)N1CCC[C@H]1Cc1nc(-c2ccc(Oc3ccccc3)cc2F)c2c(N)nccn12 [Compound 18, (S)-2-(2-((8-amino-1-(2-fluoro-4-phenoxyphenyl)imidazo[1,5-a]pyrazin-3-yl)methyl)pyrrolidine-1-carbonyl)-4-methyl-4-(methyl(oxetan-3-yl)amino)pent-2-enenitrile] | 4.3 nM | 130 nM
CC(C)(C=C(C#N)C(=O)N1CCC[C@H]1Cc1nc(-c2ccc(Oc3ccccc3)cc2F)c2c(N)nccn12)N1CCN(C2COC2)CC1 [Compound 19, (S)-2-(2-((8-amino-1-(2-fluoro-4-phenoxyphenyl)imidazo[1,5-a]pyrazin-3-yl)methyl)pyrrolidine-1-carbonyl)-4-methyl-4-(4-(oxetan-3-yl)piperazin-1-yl)pent-2-enenitrile] | 23.5 nM | 178 nM
(R)-2-(3-(4-amino-3-(2-methyl-4-phenoxyphenyl)-1H-pyrazolo[4,3-c]pyridin-1-yl)piperidine-1-carbonyl)-4-methyl-4-(4-(oxetan-3-yl)piperazin-1-yl)pent-2-enenitrile [Compound 25] | 4.4 nM | 430 nM

Second part, the compound after the results:

IC50 [1] | IC50 [2] | Compound
2.5 nM | 511 nM | CC(C)(C=C(C#N)C(=O)N1CCC[C@H]1Cn1nc(-c2ccc(Oc3ccccc3)cc2F)c2c(N)nccc21)N1CCOCC1 [Compound 22, (S)-2-(2-((4-amino-3-(2-fluoro-4-phenoxyphenyl)-1H-pyrazolo[4,3-c]pyridin-1-yl)methyl)pyrrolidine-1-carbonyl)-4-methyl-4-morpholinopent-2-enenitrile]
1.6 nM | 538 nM | CC(C)(C=C(C#N)C(=O)N1CCC[C@@H](n2nc(-c3ccc(Oc4ccccc4)cc3F)c3c(N)nccc32)C1)C1CCN(C2COC2)CC1 [Compound 23, (R)-2-(3-(4-amino-3-(2-fluoro-4-phenoxyphenyl)-1H-pyrazolo[4,3-c]pyridin-1-yl)piperidine-1-carbonyl)-4-methyl-4-(1-(oxetan-3-yl)piperidin-4-yl)pent-2-enenitrile]
1.7 nM | 577 nM | CC(C)(C=C(C#N)C(=O)N1CCC[C@@H](n2nc(-c3ccc(Oc4ccccc4)cc3F)c3c(N)nccc32)C1)N1CCNC(=O)C1 [Compound 24, (R)-2-(3-(4-amino-3-(2-fluoro-4-phenoxyphenyl)-1H-pyrazolo[4,3-c]pyridin-1-yl)piperidine-1-carbonyl)-4-methyl-4-(3-oxopiperazin-1-yl)pent-2-enenitrile]
3 nM | 367 nM | CC(C)(C=C(C#N)C(=O)N1CCC[C@@H](n2nc(-c3ccc(Oc4ccccc4)c(F)c3)c3c(N)nccc32)C1)N1CCN(C2COC2)CC1 [Compound 26, (R)-2-(3-(4-amino-3-(3-fluoro-4-phenoxyphenyl)-1H-pyrazolo[4,3-c]pyridin-1-yl)piperidine-1-carbonyl)-4-methyl-4-(4-(oxetan-3-yl)piperazin-1-yl)pent-2-enenitrile]
